Measurements: the NIST ThermoML archive (doi:10.1016/j.fluid.2015.08.007)
Several values for one entry are separate records, joined by “and”; a condition that tells them apart may be missing. Equal values may be shown once. ± gives the expanded uncertainty stated by the source.

Details: DTA

| SMILES | Normal melting temperature (Crystal) | Normal melting temperature (Crystal 1) |
| --- | --- | --- |
| CC[N+]1(C)CCCC1.O=S(=O)([N-]S(=O)(=O)C(F)(F)F)C(F)(F)F | 91 ± 2 °C |  |
| CC[N+]1(C)CCCC1.F[B-](F)(F)F [1-ethyl-1-methylpyrrolidinium tetrafluoroborate] | 66 ± 2 °C |  |
| CCCC[N+]1(C)CCCC1.[Br-] [1-butyl-1-methylpyrrolidinium bromide] | 204 ± 2 °C | 204 ± 2 °C |

The next lines start with the values.

| Normal melting temperature (Crystal) | Normal melting temperature (Crystal 1) | SMILES |
| --- | --- | --- |
| 152 ± 2 °C and 151 ± 2 °C |  | CCCC[N+]1(C)CCCC1.F[B-](F)(F)F [1-butyl-1-methylpyrrolidinium tetrafluoroborate] |
| 201 ± 2 °C and 204 ± 2 °C |  | CCCC[N+]1(C)CCCC1.[Cl-] [1-butyl-1-methylpyrrolidinium chloride] |
